These results are taken from ChEMBL document CHEMBL1129205, “Small peptide inhibitors of 47 mediated MAdCAM-1 adhesion to lymphocytes” (Bioorg Med Chem Lett, 1996).

The pIC50 is the negative decadic logarithm of the IC50, by convention in mol/L. A high value points to a low IC50. Broadly, the inhibition is how much of the control response was suppressed. A lower inhibition goes with a weak effect. In general, Inhibition refers to how much of the control response was suppressed. Low values mean a weak effect, high ones a strong effect.

pIC50: −log10 of the molar value.

In one assay the test system is HuT78. Briefly: Compound was tested for inhibition of MAdCAM-1/alpha-4 beta-7 mediated cell adhesion to T-cell lymphoma, HUT78 cells. Format: functional, cell-based. To be noted: Homo sapiens.
Assay [1] is described as follows: Inhibition of MAdCAM-1/alpha-4 beta7-mediated cell adhesion to T-cell lymphoma, HUT78 cells at 500 uM. Format: functional. To be noted: for inhibition at 500 µM: HuT78.

As to `CC(C)C[C@H](NC(=O)[C@H](CO)NC(=O)[C@@H](NC(=O)[C@H](CC(=O)O)NC(=O)[C@H](CC(C)C)NC(=O)CCCc1ccc2ccc3cccc4ccc1c2c34)[C@@H](C)O)C(N)=O`, in the assay with HuT78, the pIC50 is 5.30. For the same compound, the inhibition at 500 µM in assay [1] was determined as 5%.

`CC(C)C[C@H](NC(=O)[C@H](CO)NC(=O)[C@@H](NC(=O)[C@H](CC(=O)O)NC(=O)[C@H](CC(C)C)NC(=O)C1c2ccccc2-c2ccccc21)[C@@H](C)O)C(N)=O`: the pIC50 in the assay with HuT78 was 4.73. Also, the inhibition at 500 µM in assay [1] amounted to 18.6%. In the assay with HuT78, `CC(C)C[C@H](NC(=O)[C@H](CO)NC(=O)[C@@H](NC(=O)[C@H](CC(=O)O)NC(=O)[C@H](CC(C)C)NC(=O)C(c1ccccc1)c1ccccc1)[C@@H](C)O)C(N)=O` gave a pIC50 of 4.87. Besides, in assay [1], the inhibition at 500 µM came out at 13.4%. The compound `CC(C)C[C@H](NC(=O)[C@H](CO)NC(=O)[C@@H](NC(=O)[C@H](CC(=O)O)NC(=O)[C@H](CC(C)C)NC(=O)C(C1CCCCC1)C1CCCCC1)[C@@H](C)O)C(N)=O` gave a pIC50 in the assay on HuT78 of less than 3.00. For the compound `CCCC(CCC)C(=O)N[C@@H](CC(C)C)C(=O)N[C@@H](CC(=O)O)C(=O)N[C@H](C(=O)N[C@@H](CO)C(=O)N[C@@H](CC(C)C)C(N)=O)[C@@H](C)O`, the pIC50 with HuT78 is less than 3.00. Same read-out and setting: the result for `CC(C)C[C@H](NC(=O)[C@H](CO)NC(=O)[C@@H](NC(=O)[C@H](CC(=O)O)NC(=O)[C@H](CC(C)C)NC(=O)Cc1ccccc1)[C@@H](C)O)C(N)=O` reads less than 3.00.

In assay [1], `CC(=O)N[C@@H](CC(C)C)C(=O)N[C@H](CC(=O)O)C(=O)N[C@H](C(=O)N[C@@H](CO)C(=O)N[C@@H](CC(C)C)C(N)=O)[C@@H](C)O` came in with an inhibition at 500 µM of 0%. Take `CC(=O)N[C@@H](CCCN=C(N)N)C(=O)NCC(=O)N[C@@H](CC(C)C)C(=O)N[C@@H](CC(=O)O)C(=O)N[C@H](C(=O)N[C@@H](CO)C(=O)N[C@@H](CC(C)C)C(=O)NCC(N)=O)[C@@H](C)O` (stereo in doubt; 4): the Inhibition in assay [1] was 75%.

Consider `CC(=O)N[C@@H](CCCN=C(N)N)C(=O)NCC(=O)N[C@@H](CC(C)C)C(=O)N[C@@H](CC(=O)O)C(=O)N[C@H](C(=O)N[C@@H](CO)C(=O)N[C@@H](CC(C)C)C(=O)NCC(N)=O)[C@@H](C)O` (stereo in doubt; 10), for which the Inhibition in assay [1] came to 36%. In turn, Ac-AAASL-NH2 came in with an inhibition at 500 µM in assay [1] of 0%. Compound Ac-ADTSL-NH2 yielded an inhibition at 500 µM in assay [1] of 3%. Ac-DTSLGSVQ-NH2 had an inhibition at 500 µM in assay [1] of 0%. On the same count and under the same terms, with Ac-GLDTSLGS-NH2 the figure was 28%. As to Ac-HWRGLDTS-NH2, testing at 500 µM in assay [1] gave an inhibition of 46%. In assay [1], Ac-HWRGLDTSLGSV-NH2 showed an inhibition at 500 µM of 71%. On the same count and under the same terms, with Ac-LATSL-NH2 the figure was 0%. The same measure, in the same setting: with Ac-LDTSLGSV-NH2 the figure was 16%. In the case of Ac-LNTSL-NH2, the inhibition at 500 µM in assay [1] amounted to 0%. The same measure, in the same setting: with Ac-LYTSL-NH2 the figure was 0%; with Ac-RVHWAGLD-NH2, 0%. In turn, Ac-RVHWRGLDTSLGSVQ-NH2 gave an inhibition at 500 µM in assay [1] of 88%. Take Ac-VHWRGLDT-NH2: the inhibition at 500 µM in assay [1] is 48%.

Ac-WRGLDTSL-NH2 gave an inhibition at 500 µM in assay [1] of 52%.

Regarding Ac-WRGLDTSLGS-NH2, in assay [1], the inhibition at 500 µM came to 71%.
